Results from patent publication US8461122B2, “Derivatives of morphine-6-glucuronide, preparation method thereof and use of same in therapeutics” (Sanofi, priority 2008, dated 2013).
Like-named read-outs stand apart in the source and are kept apart here.

Test system: male Swiss mice
Conditions: tail-flick; for ED50 60 min. post-administration: Table 2 (sc); for Duration of action / % MPE max: subcutaneous
Procedure: Tests consisting in measuring the in vivo activity of the compounds of the invention on a nociceptive reflex response were performed. In this approach, the latency of the animal's nociceptive reflex response is measured as a pain indicator.
The analgesic activity was determined by means of the “tail-flick” test in male Swiss mice (Iffa Credo). This test is based on the spontaneous nociceptive reflex of removal of the animal's tail caused by a painful heat stimulus (infrared source). The “tail-flick” test (D'Amour-Smith test, 1941, Pharmacol. Exp. Ther.; 72: 74-79) consists, after administering a product, in placing a mouse's tail at the focal point of the infrared source so as to produce a nociceptive heat stimulus (surface temperature of about 55-60° C.). The mouse's reaction time (RT) (latency between the moment when the light beam is switched on and the moment when the mouse removes its tail) was measured in duplicate at different times ranging from 20 minutes to 120 minutes after administration of the product. The heat intensity is regulated such that this removal reflex is between 0.5 and 3.5 seconds in the control animals, and arbitrarily represents the criterion for minimum analgesia (0%). Two reaction time measurements were taken before administration of the product for each mouse, to establish a baseline measurement time. A maximum time of 8 seconds was chosen as the maximum reaction time so as not to induce tissue damage by burning the animals, and arbitrarily represents the criterion for maximum analgesia (100%). The reaction time is increased by the analgesics relative to a control animal not receiving any treatment. The products were administered subcutaneously and orally at doses of between 1.25 and 30 mg/kg (expressed as salt).
The percentage of analgesic activity (% MPE) is determined by the following formula: % MPE=(RTpost-administration−RTpre-administration)*100/(RTmax−RTpre-administration)

[1] = dose 10 mg/kg (expressed as salt)
[2] = dose 1.25 mg/kg (expressed as salt)

Molecule | ED50 60 min. post-administration [mg/kg] | Duration of action (dose 5 mg/kg) | % MPE max (dose 5 mg/kg (expressed as salt)) | Duration of action (dose 10 mg/kg) | % MPE max [1] | Duration of action (dose 1.25 mg/kg) | % MPE max [2] | ED50 at 60 minutes (oral, 60 minutes) | percentage of maximum analgesic activity (% MPE max index) (oral, dose 10 mg/kg) [%]
Morphin-6-yl 5-C-(2-methyl-1,3,4-oxadiazol-5-yl)-α/β-D-xylopyranoside trifluoroacetate [Compound 3] | 3.2 | >120 (5) minutes | 100 (5) % | – | – | – | – | – | –
Cc1nnc(C2O[C@H](O[C@H]3C=C[C@H]4[C@H]5Cc6ccc(O)c7c6[C@@]4(CCN5C)[C@H]3O7)[C@H](O)[C@@H](O)[C@@H]2O)o1.O=C(O)C(F)(F)F (stereo partly drawn) [Compound 4, Morphin-6-yl 5-C-(2-methyl-1,3,4-oxadiazol-5-yl)-α-D-xylopyranoside trifluoroacetate] | 8 | – | – | 90 (10) minutes | 65 (10) % | – | – | – | –
CN1CC[C@]23c4c5ccc(O)c4O[C@H]2[C@@H](O[C@@H]2O[C@H](c4nn[nH]n4)[C@@H](O)[C@H](O)[C@H]2O)C=C[C@H]3[C@H]1C5.O=C(O)C(F)(F)F [Compound 2, Morphin-6-yl 5-C-(tetrazol-5-yl)-β-d-xylopyranoside trifluoroacetate] | <1.25 | – | – | – | – | >120 (1.25) minutes | 100 (1.25) % | – | –
Morphin-6-yl 5-C-(tetrazol-5-yl)-αβ-D-xylopyranoside trifluoroacetate [Compound 1] | 10 | – | – | >120 (10) minutes | 50 (10) % | – | – | – | –
Cc1nnc(C2O[C@@H](O[C@H]3C=C[C@H]4[C@H]5Cc6ccc(O)c7c6[C@@]4(CCN5C)[C@H]3O7)[C@H](O)[C@@H](O)[C@@H]2O)o1.O=C(O)C(F)(F)F (stereo partly drawn) [Compound 5, Morphin-6-yl 5-C-(2-methyl-1,3,4-oxadiazol-5-yl)-β-D-xylopyranoside trifluoroacetate] | <1.25 | – | – | – | – | >120 (1.25) minutes | 100 (1.25) % | less than 2.5 mg/kg | 78
